We go through one substance from patent US20200069775A1, “BRAIN OSTEOCALCIN RECEPTOR AND COGNITIVE DISORDERS” (The Trustees of Columbia University in the City of New York, priority 2017, published 2020).

The subject of the data set is Osteocalcin−/− mice. In words: Intracerebro-ventricular (ICV) infusion in Osteocalcin−/− mice, behavioral tests. The format is in vivo, mouse. The method, then:
Osteocalcin−/−, Gprc6a−/−, Osteocalcin-mCherry, and Osteocalcin foxed mice have been previously described (Ducy et al., 1996, Nature 382:448-452; Oury et al., 2011, Cell 144:796-809). Mouse genotypes were determined by PCR. For all experiments, controls were littermate female WT, Cre-expressing, or flox/flox. All mice were maintained on a pure 129-Sv genetic background except for the inducible deletion Osteocalcin model (mix background: 25% C57/BL6 and 75% 129sv). For inducible gene deletion mice, tamoxifen was prepared in corn oil and injected intraperitoneally (IP) (1 mg/20g of body weight) over one week. For osteocalcin delivery to pregnant mice, IP injections (240 ng/day) were performed as soon as a plug was present daily until delivery (E0.5-E18.5). For osteocalcin or leptin infusion in adult Osteocalcin−/− or ob/ob mice, pumps (Alzet micro-osmotic pump, Model 1002) delivering osteocalcin (300 ng/hr), leptin (50 ng/hr), or vehicle were surgically installed subcutaneously in the backs of 3-month old mice. […] Leptin and osteocalcin content in sera and tissues were determined by ELISA.
Tail suspension testing was performed as previously described (Mayorga et al., 2001, J. Pharmacology Exper. Therapeutics 298:1101-1107; Stem et al., 1985, Psychopharmacology 85:367-370). […] The parameter recorded was the number of seconds spent immobile. Mice were scored by a highly trained observer, over a 5 min period, blind to the genotype of the mice.
Anxiety and locomotor activity of mice were measured using the open field test (David et al., 2009, Neuron 62:479-493). […] Mice were monitored throughout each test session by video tracking and analyzed using Matlab software. […] The overall motor activity was quantified as the total distance travelled. The anxiety was quantified measuring the number of rearings and the time and distance spent in the center versus periphery of the open field chamber (in %).
Each mouse was allowed to explore the apparatus for 5 min. Global activity was assessed by measuring the number of entries […] (David et al, 2009, Neuron 62:479-493). […]

For the substance “osteocalcin: Recombinant osteocalcin bacterially produced, cleaved from the GST subunit; completely undercarboxylated at all three sites; full-length mouse osteocalcin (YLGASVPSPDPLEPTREQCELNPACDELSDQYGLKTAYKRIYGITI)”, the “anxiety and depression features” value (Osteocalcin−/− mice, ICV 10 ng/hour, week-long treatment) was “corrected the anxiety and depression features”. The “leakage of centrally delivered hormone into the general circulation (osteocalcin in blood)” value (Osteocalcin−/− mice, ICV infusion) was “no leakage”. Moreover, the “defects in anxiety, depression, learning, and memory” value (direct administration to the brains of adult Osteocalcin−/− mice) was “rescued defects in anxiety, depression, learning, and memory”.
